Values joined by “and” are separate entries in the source; they are usually repeats but may differ in a detail not shown here. Identical values can stand only once.
System: CD4+ T cell subsets (Tn, Tcm, Tem)
Assay: Proliferation of FACS-isolated naive, central memory and effector memory CD4+ T cells
Type: cell-based, human
Experimental: Thawed PBMCs were washed with RPMI complemented with 10% FBS, 2.05 mM L-glutamine (Sigma), and 55 μM 2-ME (Gibco) before resting at 37 °C (5% CO2) for 30 min. After counting, cells were resuspended in FACS buffer at a density of 5 × 10^7 cells/ml. CD4^+ T cells were isolated using CD4^+ T cell negative isolation kits (Miltenyi Biotech) and enriched using CD4^+ T cell Enrichment kits (Miltenyi Biotech). Purified CD4^+ T cells were counted and stained with CTV dye and live/dead dye. Subsequently, surface makers were stained at 4 °C in FACS buffer (DPBS + 2% FBS). The following panels were used to classify human T CD4^+ cells from the live lymphocyte gate: naïve CD4^+ T cells: Aqua^-CD4^+CD45RA^+CD27^+; central memory CD4^+ T cells: Aqua^-CD4^+CD45RA^-CD27^+, effector memory CD4^+ T cells: Aqua^-CD4^+CD45RA^-CD27^-. After staining, cells were washed, resuspended and sorted using a FACSAria Fusion (BD Biosciences). Sorted cells were collected into PBS complemented with 2% FBS at 4 °C. Cells were then harvested via centrifugation and resuspended in RPMI-1640 ( + 10% FBS, 2.05 mM L-glutamine (Sigma), and 55 μM 2-ME (Gibco) before counting. Sorted CD4^+ subsets were counted and 85,000 cells per well seeded onto 96-well U-bottom plates with/without Human T-Activator CD3/CD28 beads (Invitrogen) at a 1:2.8 cell:bead ratio and 10 ng/ml IL-2 (Proteintech) in RPMI-1640 ( + 10% FBS, 2.05 mM L-glutamine (Sigma), and 55 μM 2-ME (Gibco). At the same time, tigecycline in serial concentrations (from 2.5 to 10 μM) was added. A half medium change took place after 3 days, and cells were harvested after 6 days for flow cytometry. Antibodies used in the study are presented in Supplementary Table 2.

SMILES: CN(C)c1cc(NC(=O)CNC(C)(C)C)c(O)c2c1C[C@H]1C[C@H]3[C@H](N(C)C)C(O)=C(C(N)=O)C(=O)[C@@]3(O)C(O)=C1C2=O [Tigecycline, tigecycline]
- proliferation of naive, central memory and effector memory CD4+ T cells (10 μM, 6 days): significantly inhibited the proliferation of all subsets
- % Cells in each division (Naïve, 2.5μM, division number 0): 4.49% and 2.85% and 0.99%
- % Cells in each division (Naïve, 2.5μM, division number 2): 44.1% and 38.6% and 39.3%
- % Cells in each division (Naïve, 2.5μM, division number 5): 0.076% and 0.28% and 0.23%
- % Cells in each division (Naïve, 2.5μM, division number 6): 0.17% and 0.1% and 0.16%
- % Cells in each division (Naïve, 2.5μM, division number 7): 0.25% and 0.12%
- % Cells in each division (Naïve, 5μM, division number 0): 3.52% and 9.14% and 5.5%
- % Cells in each division (Naïve, 5μM, division number 1): 30.8% and 43.7% and 27.9%
- % Cells in each division (Naïve, 5μM, division number 2): 51%
- % Cells in each division (Naïve, 5μM, division number 5): 0.058% and 0.021% and 0.055%
- % Cells in each division (Naïve, 5μM, division number 6): 0.28% and 0.21% and 0.25%
- % Cells in each division (Naïve, 5μM, division number 7): 0.45% and 0.34% and 0.31%
- % Cells in each division (Naïve, 10μM, division number 0): 20.7% and 12.2% and 12.7%
- % Cells in each division (Naïve, 10μM, division number 1): 58.7% and 45.6% and 58.3%
- % Cells in each division (Naïve, 10μM, division number 2): 19.7% and 37.8% and 26.9%
- % Cells in each division (Naïve, 10μM, division number 5): 0% and 0.056% and 0.037%
- % Cells in each division (Naïve, 10μM, division number 6): 0.22% and 0.27% and 0.31%
- % Cells in each division (Naïve, 10μM, division number 7): 0.47% and 0.48% and 0.72%
- % Cells in each division (TCM, 2.5μM, division number 0): 11.5% and 6.18% and 6.94%
- % Cells in each division (TCM, 2.5μM, division number 1): 38% and 27.5% and 31.5%
- % Cells in each division (TCM, 2.5μM, division number 2): 33.5% and 37.9% and 38.1%
- % Cells in each division (TCM, 2.5μM, division number 5): 0.31% and 0.62% and 0.44%
- % Cells in each division (TCM, 2.5μM, division number 6): 0.5% and 0.64% and 0.43%
- % Cells in each division (TCM, 2.5μM, division number 7): 0.62% and 0.7%
- % Cells in each division (TCM, 5μM, division number 0): 31.4% and 19.3% and 18.6%
- % Cells in each division (TCM, 5μM, division number 1): 46.4% and 46.1% and 47.3%
- % Cells in each division (TCM, 5μM, division number 2): 17% and 26.2% and 27.6%
- % Cells in each division (TCM, 5μM, division number 5): 0.095% and 0.16% and 0.1%
- % Cells in each division (TCM, 5μM, division number 6): 0.58% and 0.85% and 0.47%
- % Cells in each division (TCM, 5μM, division number 7): 1.11% and 1.15% and 0.74%
- % Cells in each division (TCM, 10μM, division number 0): 51.5% and 35.3% and 35.1%
- % Cells in each division (TCM, 10μM, division number 1): 39.1% and 48.8% and 52.5%
- % Cells in each division (TCM, 10μM, division number 2): 6.84% and 12.8% and 10.7%
- % Cells in each division (TCM, 10μM, division number 5): 0.11% and 0.14% and 0.05%
- % Cells in each division (TCM, 10μM, division number 6): 0.69% and 0.83% and 0.56%
- % Cells in each division (TCM, 10μM, division number 7): 1.26% and 0.83%

From paper PMC12045974, “T cell toxicity induced by tigecycline binding to the mitochondrial ribosome” (Nature Communications, 2025)
